Measured values: BindingDB's records for doi:10.1021/jm9804127 (Glaxo Wellcome Research and Development, 1999)

biological target: not listed separately; assay: Ability to promote differentiation of C3H10T1/2 stem cells to adipocytes using lipogenesis assay mediated through activation of Peroxisome proliferator activated receptor gamma

Row | EC50 | SMILES
1 | 468 nM | CN(CCOc1ccc(CC(Nc2ccccc2Oc2ccccc2)C(=O)O)cc1)c1nc2ccccc2o1 (configuration not stated)
2 | 1320 nM | CN(CCOc1ccc(CC(Nc2ccccc2C(O)c2ccccc2)C(=O)O)cc1)c1ccccn1 (configuration not stated)
3 | 1150 nM | CC1(COc2ccc(C[C@H](Nc3ccccc3C(=O)c3ccccc3)C(=O)O)cc2)CCCCC1
4 | 363 nM | Cc1c(C)c2c(c(C)c1O)CCC(C)(COc1ccc(C[C@H](Nc3ccccc3C(=O)c3ccccc3)C(=O)O)cc1)O2 (some centres not stated)
5 | 4.4 nM | CN(CCOc1ccc(C[C@H](Nc2ccccc2C(=O)c2ccccc2)C(=O)O)cc1)c1nc2ccccc2o1
6 | 575 nM | CN(CCOc1ccc(CC(Nc2cccc3c2C(=O)c2ccccc2-3)C(=O)O)cc1)c1nc2ccccc2o1 (configuration not stated)
7 | 47 nM | CN(CCOc1ccc(CC(Nc2ccccc2C(=O)Cc2ccccc2)C(=O)O)cc1)c1nc2ccccc2o1 (configuration not stated)
8 | 501 nM | CCc1ccc(CCOc2ccc(C[C@H](Nc3ccccc3C(=O)c3ccccc3)C(=O)O)cc2)nc1
9 | 1510 nM | O=C(c1ccccc1)c1ccccc1N[C@@H](Cc1ccc(OCc2ccccc2)cc1)C(=O)O
10 | 1150 nM | CN(CCOc1ccc(CC(Oc2ccccc2C(=O)c2ccccc2)C(=O)O)cc1)c1nc2ccccc2o1 (configuration not stated)
11 | 2190 nM | CN(CCOc1ccc(CC(Nc2ccccc2S(=O)(=O)c2ccccc2)C(=O)O)cc1)c1nc2ccccc2o1 (configuration not stated)

biological target: T1, Peroxisome proliferator-activated receptor gamma (Homo sapiens, UniProt P37231); assay: Ability to promote differentiation of C3H10T1/2 stem cells to adipocytes using lipogenesis assay mediated through activation of Peroxisome proliferator activated receptor gamma
T1 sequence (P37231 whole entry): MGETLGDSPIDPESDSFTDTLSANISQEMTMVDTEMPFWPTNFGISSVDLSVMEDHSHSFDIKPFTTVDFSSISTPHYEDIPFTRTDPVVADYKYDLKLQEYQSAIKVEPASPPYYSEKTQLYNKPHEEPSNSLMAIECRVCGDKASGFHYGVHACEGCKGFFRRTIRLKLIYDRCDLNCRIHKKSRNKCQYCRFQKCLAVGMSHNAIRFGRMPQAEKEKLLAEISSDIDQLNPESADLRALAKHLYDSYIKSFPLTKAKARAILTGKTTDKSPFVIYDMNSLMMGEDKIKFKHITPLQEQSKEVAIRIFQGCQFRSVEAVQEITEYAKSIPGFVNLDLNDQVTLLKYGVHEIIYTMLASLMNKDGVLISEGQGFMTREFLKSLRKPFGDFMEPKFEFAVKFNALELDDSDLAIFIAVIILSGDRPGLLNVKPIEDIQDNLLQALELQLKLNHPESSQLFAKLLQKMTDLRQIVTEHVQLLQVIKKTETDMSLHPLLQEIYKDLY

Row | EC50 | SMILES
12 | 1230 nM | CN(CCOc1ccc(CC(Nc2ccccc2C(N=N)c2ccccc2)C(=O)O)cc1)c1ccccn1 (configuration not stated)
